Test results reported in patent US8084610B2, “Compositions and methods for detecting and treating tumors containing acidic areas” (priority 2006, dated 2011).

Key:
[1] = Titration assay of sodium salts with 5 M HCl (pKa / effective pKa)
Experimental: Typically new structures that may be suitable as advanced pH-switch components are first assessed for their pKa value in normal saline. This entails preparing the sodium salt form of the structure and dissolving it at a concentration of 20 milliMolar in 15 ml of 0.15 Molar NaCl (deareated to remove CO2). […] A plot of pH versus volume of added HCl affords the effective pKa value. It is also desirable to carry out this same titration in methanol/water (1:1 by vol) in order to get an estimate of the pKa value independent of insolubility effects.
The compound in FIG. 12a was prepared by reacting camphoric anhydride with dimethylamine. The compound in FIG. 12b was prepared by reacting camphoric anhydride with ethylamine. The sodium salts of compounds shown in FIG. 12a (designed to form an internal acid-specific H-bond) and 12b (designed to form non-acid-specific H-bonds) were titrated in aqueous solution.
The two compounds in FIG. 15 were prepared by reacting the respective anhydrides with dimethylamine, and then the sodium salts titrated in methanol/water, 1:1 by volume—in order to preclude insolubility effects impacting the titration curve.
The methyl ester of isonipocotic acid was alkylated with bromopropane and then the resultant tertiary amine oxidized to the N-oxide with meta-Chlorobenzoylperoxide. Finally, the ester was cleaved with aqueous sodium hydroxide to give structure iii in FIG. 16b. This product in its sodium salt form was titrated in water.

[2] = tested on: tumors; details: tumor-bearing mice; reduction of about 0.3 pH units in the tumors; cited from earlier work

## CN(C)C(=O)C=CC(=O)O [FIG. 14b]
[1]; sodium salt titrated with HCl in water / aqueous solution
  pKa value (mid-point of the transition between salt and acid): below 3.0

## O=C(O)CCCc1ccc(N(CCCl)CCCl)cc1 [Chlorambucil]
[2]
  improvement in tumor growth delay: 1.7 fold

## CCC[N+]1([O-])CCC(C(=O)O)CC1 (stereo not shown) [structure iii in FIG. 16b, N-oxide of N-propylisonipocotic acid]
[1]; sodium salt titrated in water
  first derivative of titration plot, minimum attributed to N-oxide moiety (pH): ~4.0
  first derivative of titration plot, other minimum (pH), attributed to internal low-barrier H-bond: ~5.6
